Molecules are shown by their SMILES.

The target in the first experiment is T1, p53-Y220C mutant protein (Homo sapiens, UniProt P04637, Y220C).
T1 construct: The recombinant Y220C p53 DBD protein with his-tag
In words: In vitro DNA binding activity assay (TR-FRET). It counts as biochemical. As to conditions: concentration required to increase the binding activity of protein to DNA by 50%. In short, it runs like this: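 His-tagged Y220C p53 DBD was equilibrated with compound 60 min at room temperature, then biotin-DNA, anti-6His-Eu and streptavidin-d2 were added and incubated overnight in the dark. TR-FRET 665/615 nm ratio, background-corrected, was expressed as % activity versus vehicle; SC150 is the concentration raising DNA binding by 50%.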
For orientation: TR-FRET usually uses a lanthanide donor and a delayed reading to cut background.
In turn, `CN1CC[C@@H](Nc2cccc3c(CC(F)(F)F)c(C#CCNC(=O)c4cccc(F)c4)nn23)[C@@H](F)C1` [Compound 339, 3-fluoro-N-[3-(7-{[(3S,4R)-3-fluoro-1-methylpiperidin-4-yl]amino}-3-(2,2,2-trifluoroethyl)pyrazolo[1,5-a]pyridin-2-yl)prop-2-yn-1-yl]benzamide] returned an SC150 of 92 nM.

With `CCn1ncc(C(=O)NCC#Cc2nn3c(N[C@@H]4CCN(C)C[C@@H]4F)cccc3c2CC(F)(F)F)c1Cl` [Compound 343], the SC150 is reported as 25 nM.

The compound `CCn1cc(C(=O)NCC#Cc2nn3c(N[C@@H]4CCN(C)C[C@@H]4F)cccc3c2CC(F)(F)F)c(Cl)n1` [Compound 344] had an SC150 of 56 nM.

`CN1CC[C@@H](Nc2cccc3c(CC(F)(F)F)c(C#CCNC(=O)c4cnn(C(C)(C)C5CC5)c4)nn23)[C@@H](F)C1` [Compound 346, 1-(2-cyclopropylprop-2-yl)-N-[3-(7-{[(3S,4R)-3-fluoro-1-methylpiperidin-4-yl]amino}-3-(2,2,2-trifluoroethyl)pyrazolo[1,5-a]pyridin-2-yl)prop-2-yn-1-yl]-1H-pyrazole-4-carboxamide] registered an SC150 of 18 nM.

`CCc1c(C#CCNC(=O)c2cnn(C(C)(C)C)c2N)nn2c(N[C@@H]3CCN(C)C[C@@H]3F)cccc12` [Compound 348, 5-amino-1-tert-butyl-N-[3-(3-ethyl-7-{[(3S,4R)-3-fluoro-1-methylpiperidin-4-yl]amino}-pyrazolo[1,5-a]pyridin-2-yl)prop-2-yn-1-yl]-1H-pyrazole-4-carboxamide] registered an SC150 of 28 nM.

`CN1CC[C@@H](Nc2cccc3c(CC(F)(F)F)c(C#CCNC(=O)c4cn(CC5CCCC5)nc4N)nn23)[C@@H](F)C1` [Compound 349] had an SC150 of 12 nM.

On to `CN1CC[C@@H](Nc2cccc3c(CC(F)(F)F)c(C#CCNC(=O)c4cn(C5CC5)nc4N)nn23)[C@@H](F)C1` [Compound 350, 3-amino-N-[3-(7-{[(3S,4R)-3-fluoro-1-methylpiperidin-4-yl]amino}-3-(2,2,2-trifluoroethyl)pyrazolo[1,5-a]pyridin-2-yl)prop-2-yn-1-yl]-1-(cyclopropyl)-1H-pyrazole-4-carboxamide], for which the SC150 is 13 nM.

For `CN1CC[C@@H](Nc2cccc3c(CC(F)(F)F)c(C#CCNC(=O)c4cn(CC(C)(C)C)nc4N)nn23)[C@@H](F)C1` [Compound 352], the SC150 was determined as 13 nM.

`CN1CC[C@@H](Nc2cccc3c(CC(F)(F)F)c(C#CCNC(=O)c4cn(C(C)(C)C)nc4O)nn23)[C@@H](F)C1` [Compound 356, 1-(tert-butyl)-N-[3-(7-{[(3S,4R)-3-fluoro-1-methylpiperidin-4-yl]amino}-3-(2,2,2-trifluoroethyl)pyrazolo[1,5-a]pyridin-2-yl)prop-2-yn-1-yl]-3-hydroxy-1H-pyrazole-4-carboxamide] returned an SC150 of 87 nM.

Compound `Cc1cc(N[C@@H]2CCN(C)C[C@@H]2F)n2nc(C#CCNC(=O)c3cnn(C(C)(C)C)c3N)c(CC(F)(F)F)c2c1` [Compound 360, 5-amino-1-tert-butyl-N-[3-(7-{[(3S,4R)-3-fluoro-1-methylpiperidin-4-yl]amino}-5-methyl-3-(2,2,2-trifluoroethyl)pyrazolo[1,5-a]pyridin-2-yl)prop-2-yn-1-yl]-1H-pyrazole-4-carboxamide] registered an SC150 of 160 nM.

As for `CC(C)(C)n1ncc(C(=O)NCC#Cc2nn3c(NC4CCOCC4)cccc3c2CC(F)(F)F)c1N` [Compound 361, 5-amino-1-tert-butyl-N-(3-(7-[(tetrahydro-2H-pyran-4-yl)amino]-3-(2,2,2-trifluoroethyl)pyrazolo[1,5-a]pyridin-2-yl)prop-2-yn-1-yl)-1H-pyrazole-4-carboxamide], the SC150 was determined as 49 nM.

`CC(C)c1c(C#CCNC(=O)c2cnn(C(C)(C)C)c2N)nn2c(N[C@@H]3CCN(C)C[C@@H]3F)cccc12` [Compound 362, 5-amino-1-tert-butyl-N-(3-(7-{[(3S,4R)-3-fluoro-1-methylpiperidin-4-yl]amino}-3-(prop-2-yl)pyrazolo[1,5-a]pyridin-2-yl)prop-2-yn-1-yl)-1H-pyrazole-4-carboxamide] returned an SC150 of 98 nM.

Compound `CN1CCC(Nc2cccc3c(CC(F)(F)F)c(C#CCNC(=O)c4cnn(C(C)(C)C)c4N)nn23)C1` (centres unmarked) [Compound 366, 5-amino-1-tert-butyl-N-(3-(7-[(1-methylpyrrolidin-3-yl)amino]-3-(2,2,2-trifluoroethyl)pyrazolo[1,5-a]pyridin-2-yl)prop-2-yn-1-yl)-1H-pyrazole-4-carboxamide] showed an SC150 of 30 nM.

Consider `CN1CCC2(CC1)CC(Nc1cccc3c(CC(F)(F)F)c(C#CCNC(=O)c4cnn(C(C)(C)C)c4N)nn13)C2` [Compound 367], for which the SC150 stood at 27 nM.

In turn, `CN1CC2CCC(C1)C2Nc1cccc2c(CC(F)(F)F)c(C#CCNC(=O)c3cnn(C(C)(C)C)c3N)nn12` (centres unmarked) [Compound 368, 5-amino-1-(tert-butyl)-N-(3-(7-((3-methyl-3-azabicyclo[3.2.1]octan-8-yl)amino)-3-(2,2,2-trifluoroethyl)pyrazolo[1,5-a]pyridin-2-yl)prop-2-yn-1-yl)-1H-pyrazole-4-carboxamide] showed an SC150 of 57 nM.

In turn, `CN1CCC(Nc2cccc3c(CC(F)(F)F)c(C#CCNC(=O)c4cnn(C(C)(C)C)c4N)nn23)CC1` [Compound 370, 5-amino-1-tert-butyl-N-(3-(7-[(1-methylpiperidin-4-yl)amino]-3-(2,2,2-trifluoroethyl)pyrazolo[1,5-a]pyridin-2-yl)prop-2-yn-1-yl)-1H-pyrazole-4-carboxamide] had an SC150 of 9 nM.

`COCC(O)CN1CCC(Nc2cccc3c(CC(F)(F)F)c(C#CCNC(=O)c4cnn(C(C)(C)C)c4N)nn23)CC1` (centres unmarked) [Compound 371, 5-amino-1-tert-butyl-N-[3-(7-{[1-(2-hydroxy-3-methoxypropy)piperidin-4-yl]amino}-3-(2,2,2-trifluoroethyl)pyrazolo[1,5-a]pyridin-2-yl)prop-2-yn-1-yl]-1H-pyrazole-4-carboxamide] came in with an SC150 of 12 nM.

With `CC(C)(C)n1ncc(C(=O)NCC#Cc2nn3c(N[C@@H]4CCN(C5CC5)C[C@@H]4F)cccc3c2CC(F)(F)F)c1N` [Compound 372, 5-amino-1-tert-butyl-N-(3-(7-{[(3S,4R)-1-cyclopropyl-3-fluoropiperidin-4-yl]amino}-3-(2,2,2-trifluoroethyl)pyrazolo[1,5-a]pyridin-2-yl)prop-2-yn-1-yl)-1H-pyrazole-4-carboxamide], the SC150 is 18 nM.

The subject of another experiment is NUGC-3 cells. Put plainly: NUGC-3 cell proliferation assay (CTG, 7 days). As to conditions: Homo sapiens, NUGC-3, 168 h, NUGC-3 cell proliferation, 7 days, CTG; read-out: IC50. It counts as cell-based, human. The procedure: The cells were cultured in strict accordance with ATCC requirements.
Cell culture medium: 1640 culture medium, 10% serum, 1% penicillin + streptomycin.
Culture conditions: 37°C, 95% air, 5% carbon dioxide.
Compounds (20 mM) were subjected to gradient dilution in DMSO: 10 gradients, 3-fold dilution, duplicate wells.
Positive and negative controls (100% dimethyl sulfoxide) were prepared.
The compounds that were gradient diluted with DMSO and positive and negative controls (1st and 2nd step), each 75 nL, were transferred to 384-well cell culture plates by Echo550.
The cells were washed twice with PBS, digested with trypsin, and centrifuged for cell counting.
The experiment can only be carried out when the cell viability is above 90%.
The cells were plated into 384-well cell culture plates, with 200 (NUGC-3) cells and 30 µL of culture medium per well.
The 384-well microplate was placed in a cell culture incubator for 7 days.
30 µL of CTG detection reagent was added to the 384-well microplate.
The 384-well microplate was incubated for 30 min at 37°C, 5% carbon dioxide in the dark.
The reading was performed by a multi-functional microplate reader Envision.
% Inhibition is calculated as follows: % Inhibition = 100−(Signalcmpd−SignalAve_BL)/(SignalAve_VC−SignalAve_BL)*100 [formula] • Signalcmpd: Average signal of the compound in the cell plate • Signalave_vc: Average signal of the negative control in the cell plate • Signalave_BL: Average signal of the blank wells in the cell plate
IC50 was calculated by fitting % inhibition and compound concentration logarithmically to a nonlinear regression (dose response - variable slope) using Graphpad 8.0. Table 2 IC50 of selected compounds in NUGC-3 cell proliferation assay
As usually defined, the IC50 is the midpoint of a concentration-inhibition curve. As for `CN1CC[C@@H](Nc2cccc3c(CC(F)(F)F)c(C#CCNC(=O)c4ccccc4)nn23)[C@@H](F)C1` [Compound 069, N-[3-(7-{[(3S,4R)-3-fluoro-1-methylpiperidin-4-yl]amino}-3-(2,2,2-trifluoroethyl)pyrazolo[1,5-a]pyridin-2-yl)prop-2-yn-1-yl]benzamide], the IC50 was 2.85 µM.

For the compound `COc1ccc(C(=O)NCC#Cc2nn3c(N[C@@H]4CCN(C)C[C@@H]4F)cccc3c2CC(F)(F)F)cc1` [Compound 070, N-[3-(7-{[(3S,4R)-3-fluoro-1-methylpiperidin-4-yl]amino}-3-(2,2,2-trifluoroethyl)pyrazolo[1,5-a]pyridin-2-yl)prop-2-yn-1-yl]-4-methoxybenzamide], the half-maximal inhibitory concentration (IC50) was 3.32 µM.

Regarding `COc1ccccc1C(=O)NCC#Cc1nn2c(N[C@@H]3CCN(C)C[C@@H]3F)cccc2c1CC(F)(F)F` [Compound 071, N-[3-(7-{[(3S,4R)-3-fluoro-1-methylpiperidin-4-yl]amino}-3-(2,2,2-trifluoroethyl)pyrazolo[1,5-a]pyridin-2-yl)prop-2-yn-1-yl]-2-methoxybenzamide], the 50% inhibitory concentration (IC50) was 4.56 µM.

Regarding `CN1CC[C@@H](Nc2cccc3c(CC(F)(F)F)c(C#CCNC(=O)c4csc(C(C)(C)C)n4)nn23)[C@@H](F)C1` [Compound 088, 2-tert-butyl-N-[3-(7-{[(3S,4R)-3-fluoro-1-methylpiperidin-4-yl]amino}-3-(2,2,2-trifluoroethyl)pyrazolo[1,5-a]pyridin-2-yl)prop-2-yn-1-yl]-1,3-thiazole-4-carboxamide], the half-maximal inhibitory concentration (IC50) is 7.11 µM.

On to `CN1CC[C@@H](Nc2cccc3c(CC(F)(F)F)c(C#CCNC(=O)c4cnc(C(C)(C)C)s4)nn23)[C@@H](F)C1` [Compound 089, 2-tert-butyl-N-[3-(7-{[(3S,4R)-3-fluoro-1-methylpiperidin-4-yl]amino}-3-(2,2,2-trifluoroethyl)pyrazolo[1,5-a]pyridin-2-yl)prop-2-yn-1-yl]-1,3-thiazole-5-carboxamide], for which the IC50 came to 8.06 µM.

The values are drawn from patent EP4737449A1 (Changchun Genescience Pharmaceutical Co., Ltd., priority 2023, dated 2025).
